Experimental data from patent US11596633B2, “SHP2 inhibitor compositions and methods for treating cancer” (Revolution Medicines, Inc., priority 2017, dated 2023).

Columns and labels:
p-ERK1/2 in H358 cells = assay: p-ERK AlphaLisa SureFire; assay type: cell-based, human; settings: H358 cells (KRAS G12C)
Description: (§1) Cells were plated at ˜20×10^3 cells per well and following overnight incubation were washed with serum-free media. Cells were then incubated for one hour with increasing concentrations of the test article in serum-free media containing 0.2% BSA prior to termination of the assay and measurement of pERK levels in cellular lysates by AlphaLisa SureFire Ultra kit conducted according to the manufacturer's instructions.

p-ERK1/2 in Calu-1 cells = assay: p-ERK AlphaLisa SureFire; assay type: cell-based, human; settings: Calu-1 cells (KRAS G12C)
Description: as §1

p-ERK1/2 in H1792 cells = assay: p-ERK AlphaLisa SureFire; assay type: cell-based; settings: H1792 cells (KRAS G12C)
Description: as §1

MIA-Pa-Ca-2 xenograft = assay: MIA-Pa-Ca-2 xenograft, Compound C with Abemaciclib (Example 8); assay type: in vivo, mice; settings: Compound C 30 mg/kg PO, Abemaciclib 50 mg/kg
Source text: Similar methods were used to evaluate efficacy of test articles in the pancreatic MiaPaca-2 KRas^G12C xenograft model. Balb/c nude mice (6-8 weeks old) were implanted with […] MiaPaca-2 tumor cells in 50% Matrigel subcutaneously in the flank. […] Administration of test articles and study design are as described above for H358 xenograft model.
(§2) The effects on tumor cell growth in vivo of another SHP2 inhibitor (Compound C) as a monotherapy or as a combination therapy with various Ras pathway inhibitors were evaluated in the NSCLC H358 KRas^G12C and MIA-Pa-Ca-2 xenograft models as described above in Example 1, except that the test article and vehicle formulation was (2% HPMC E-50, 0.5% Tween 80 in 50 mM Sodium Citrate Buffer, pH 4.0)+/− the inhibitor compound(s). […] Test compounds or vehicle control were administered by oral gavage daily. The study endpoint was defined as a mean tumor volume of 2000 mm^3 in the control group or 22 days post-dosing, whichever came first. Mean tumor volume data are reported for all animals that remained on study.

H358 KRas G12C xenograft = assay type: in vivo; settings: daily PO, Compound C 10 mg/kg, Trametinib 1 mg/kg, Cobimetinib 2.5 mg/kg, Ulixertinib 100 mg/kg
Description: The positive control, paclitaxel (30 mg/kg iv) in 5% ethanol, 5% cremophor EL, in 5% dextrose in deionized water was administered once every five days. Trametinib (1 mg/kg PO in 0.5% Methylcellulose+0.5% Tween 80) was administered by oral gavage daily. The study endpoint was defined as a mean tumor volume of 2000 mm^3 in the control group or 22 days, whichever came first. Mean tumor volume data are reported for all animals that remained on study.
as §2

[1] = test system: RAS-GTP in NCI-H1838 cells; assay: RAS-GTP pulldown (Raf-RBD); assay type: cell-based; settings: NCI-H1838 (NF1 LOF), MEK inhibition by trametinib
Description: (§3) To determine the effects of small molecules on levels of activated RAS-GTPase, cell lines of interest were cultured under standard 2D culture conditions. Cells were seeded and following overnight incubation incubated at 37° C. with vehicle (DMSO) or test article(s). After an appropriate incubation period, cells were washed and cell lysis buffer added to prepare a cell lysate. The levels of Ras-GTP in the lysates were determined using affinity purification of a Raf-RBD (Ras binding domain of Raf)/GTP-Ras complex. In one approach, the Pierce Active Ras Pulldown and Detection Kit was used. Briefly, clarified lysates (500 μg total protein, quantified by BCA) were mixed with glutathione resin, which had been preincubated with GST-Raf-RBD. The mixture was vortexed and incubated at 4° C. for 1 hour with gentle rocking. The resin was washed three times with lysis buffer and bound Ras-GTP eluted by addition of 2× reducing sample buffer. Eluted proteins were separated by SDS-PAGE using a 4-15% Tris-glycine gel (BioRad). Proteins were transferred to a nitrocellulose membrane for western blot using an anti-Ras antibody (Thermofisher, 1:200) and a Licor IRDye-800 anti-mouse secondary antibody (1:20,000). The Licor Odyssey CLx was used for visualization.
as §3, with “resin” for “resin,”

NCI-H358 xenograft = assay: NCI-H358 xenograft, alone and with trametinib (Example 7); settings: trametinib 1 mg/kg
Description: The effects of a SHP2 inhibitor on tumor cell growth in vivo were evaluated in the NSCLC H358 xenograft model using female athymic nude mice (6-8 weeks old). Mice were implanted with H358 tumor cells in 50% Matrigel (1×10^7 cells/animal) subcutaneously in the flank. Once tumors reached an average size of 200 mm^3 mice were randomized to treatment groups and administration of test article or vehicle (50 mM acetate buffer, pH 4.6 containing 10% captisol, unless otherwise indicated) initiated. […] Body weight and tumor volume (using calipers) was measured every other day until study endpoints.

[2] = test system: phosphorylated RTKs in MDA-MB-231 cells; assay: Phospho-RTK array; assay type: cell-based; settings: MDA-MB-231 (KRAS G13D), 24 hours; selumetinib 5 μM, Compound A 1 and 5 μM
Description: To determine the effects of test article(s) on levels of phosphorylated RTKs, MDA-MB231 cells were seeded in 6-well plates and incubated overnight in full growth medium. Cells were treated for 24 hours with selumetinib (5 μM) or Compound A (1 and 5 μM) or left untreated (DMSO control). Lysates were generated using the lysis buffer provided with the kit (Phospho-RTK Array; R&D systems) with inclusion of a protease inhibitor cocktail. To control for protein concentration, total protein levels were quantified using BCA reagent kit. The levels of phospho-RTK were determined according to the manufacturer's instructions.

C=CC(=O)N1CC(N2CCN(C(=O)CNc3cc(C4(C)CC4)c(Cl)cc3O)CC2)C1 [ARS-853, reference compound]
inhibition of p-ERK1/2 levels (p-ERK1/2 in H358 cells): sensitive | inhibition of p-ERK1/2 levels (p-ERK1/2 in Calu-1 cells): sensitive | inhibition of p-ERK1/2 levels (p-ERK1/2 in H1792 cells): sensitive

CCN1CCN(Cc2ccc(Nc3ncc(F)c(-c4cc(F)c5nc(C)n(C(C)C)c5c4)n3)nc2)CC1 [Abemaciclib]
tumor growth as a single agent compared to vehicle control (MIA-Pa-Ca-2 xenograft): significant tumor growth inhibition

O=C(c1ccc(F)c(F)c1Nc1ccc(I)cc1F)N1CC(O)([C@@H]2CCCCN2)C1 [Cobimetinib]
tumor growth as a single agent compared to vehicle control (H358 KRas G12C xenograft): significant tumor growth inhibition

CC(=O)Nc1cccc(-n2c(=O)n(C3CC3)c(=O)c3c(Nc4ccc(I)cc4F)n(C)c(=O)c(C)c32)c1 [Trametinib, reference compound]
tumor growth as a single agent compared to vehicle control (H358 KRas G12C xenograft): significant tumor growth inhibition | feedback-driven RAS-GTP accumulation [1]: caused feedback-driven RAS-GTP accumulation | tumor growth as compared to the vehicle control (NCI-H358 xenograft; single agent, Compound B 10 and 30 mg/kg): significant tumor growth inhibition | tumor growth inhibition, TGI (NCI-H358 xenograft): 79%

CC(C)Nc1cc(-c2c[nH]c(C(=O)N[C@H](CO)c3cccc(Cl)c3)c2)c(Cl)cn1 [Ulixertinib]
tumor growth as a single agent compared to vehicle control (H358 KRas G12C xenograft): significant tumor growth inhibition

Cn1cnc2c(F)c(Nc3ccc(Br)cc3Cl)c(C(=O)NOCCO)cc21 [selumetinib, Selumetinib, reference compound]
feedback-driven p-RTK hyperactivation [2]: caused feedback-driven p-RTK hyperactivation
